Here are results for 1 compound from US11767374B2, “Method and use of Radix puerariae polysaccharide in promoting lipid-lowering activity” (JIANGXI UNIVERSITY OF TRADITIONAL CHINESE MEDICINE, priority 2020, dated 2023).

This experiment deals with high-cholesterol hyperlipidemia rats. The experiment can be described thus: In vivo lipid-lowering experiment in high-cholesterol hyperlipidemia rats. Details: species or system Wistar rats. The settings on record: plasma, positive drug 8 mg/kg, half a month. The source says:
56 male Wistar rats (8 weeks old, body weight: 200 g±20 g) were purchased from Beijing Vital River Laboratory Animal Technology Co., Ltd. All animals were fed with a normal diet adaptively for 1 week.
The rats were sampled every half month to determine the plasma total triglyceride (TG), total cholesterol (TC), low-density lipoprotein (LDL-C), and high-density lipoprotein (HDL-C) levels. 2 months later, all rats were anesthetized with isoflurane, and then blood samples were collected from the orbital vein using capillary tubes. The blood samples were centrifuged (4° C., 4,000 r×min^−1, and 15 min) to obtain plasma samples, a kit (purchased from Nanjing Jiancheng Biotechnology Co., Ltd., China) was used to make a standard curve, and a chromogenic reaction was conducted according to specified steps to determine the plasma TG, TC, LDL-C, and HDL-C levels, thereby determining whether hyperlipidemia models were successfully constructed.
The rats were intragastrically administered for half a month. The night before the experiment, the rats were fasted; and on the day of the experiment, the rats were weighed and resulting body weights were recorded. The rats were anesthetized with isoflurane, then blood was collected from the orbit and placed in a heparin sodium centrifuge tube, and blood samples were centrifuged (4° C., 4,000 r×min^−1, and 15 min) to obtain plasma samples. A kit (purchased from Nanjing Jiancheng Biotechnology Co., Ltd., China) was used to make a standard curve, and the plasma TG, TC, LDL-C, and HDL-C levels were determined according to specified steps. The rats were sacrificed through cervical dislocation, and then a liver tissue was collected and weighed. A liver index was calculated according to the following formula: liver index=liver weight (g)/rat weight (g).
Data analysis: In this experiment, the SPSS11.5 version was used to analyze data (3 repetitions), and analysis of variance (ANOVA) and intergroup Duncan multiple comparison were adopted.

Compound `CCC(C)(C)C(=O)O[C@H]1C[C@@H](C)C=C2C=C[C@H](C)[C@H](CC[C@@H]3C[C@@H](O)CC(=O)O3)[C@H]21` [Simvastatin, simvastatin] showed an HDL-C of 2.89 ± 0.44 b mmol/L, an LDL-C of 0.51 ± 0.09 b mmol/L and a TG of 0.87 ± 0.27 c mg/mL.
